Reference: ChEMBL document CHEMBL3588804, “Structure-activity relationship studies on acremomannolipin A, the potent calcium signal modulator with a novel glycolipid structure 3: role of the length of alditol side chain” (Bioorg Med Chem, 2015)
Active and inactive are the calls of the source. No cut-off for these calls is given here.

System: Schizosaccharomyces pombe
Test: Suppression of Cl- sensitive growth defect in calcineurin gene deleted Schizosaccharomyces pombe (h+ leu1 ura4-D18 ppb1::ura4+) at 100 uM after 3 days by filter paper disk assay in presence of 0.11 M MgCl2 in YPD medium

Row | SMILES | Activity
1 | CCCCCCCC(=O)O[C@@H]1[C@H](OC[C@@H](O)[C@@H](O)[C@H](O)CO)O[C@H](COC(=O)CCCCC)[C@@H](OC(=O)CCCCC)[C@@H]1OC(=O)CCCCC | Active
2 | CCCCCCCC(=O)O[C@@H]1[C@H](OC[C@@H](O)[C@@H](O)CO)O[C@H](COC(=O)CCCCC)[C@@H](OC(=O)CCCCC)[C@@H]1OC(=O)CCCCC | Active
3 | CCCCCCCC(=O)O[C@@H]1[C@H](OC[C@@H](O)[C@@H](O)[C@H](O)[C@H](O)[C@@H](O)CO)O[C@H](COC(=O)CCCCC)[C@@H](OC(=O)CCCCC)[C@@H]1OC(=O)CCCCC | Active
4 | CCCCCCCC(=O)O[C@@H]1[C@H](OC[C@@H](O)CO)O[C@H](COC(=O)CCCCC)[C@@H](OC(=O)CCCCC)[C@@H]1OC(=O)CCCCC | inactive
5 | CCCCCCCC(=O)O[C@@H]1[C@H](OCCO)O[C@H](COC(=O)CCCCC)[C@@H](OC(=O)CCCCC)[C@@H]1OC(=O)CCCCC | inactive
6 | CCCCCCCC(=O)O[C@@H]1[C@H](OC[C@@H](O)[C@@H](O)[C@H](O)[C@H](O)CO)O[C@H](COC(=O)CCCCC)[C@@H](OC(=O)CCCCC)[C@@H]1OC(=O)CCCCC | Active
